Measured values from the supplement of paper PMC12463676, “Small-molecule dissolution of stress granules by redox modulation benefits ALS models” (Nature Chemical Biology, 2025).
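Further: each temperature applied for 3 min, abundance score taken as mean log2 fold change at the two lowest temperatures, z-score obtained by mean subtraction and division by SD.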

Sequence of UniProt Q562E7 (Q562E7 whole entry): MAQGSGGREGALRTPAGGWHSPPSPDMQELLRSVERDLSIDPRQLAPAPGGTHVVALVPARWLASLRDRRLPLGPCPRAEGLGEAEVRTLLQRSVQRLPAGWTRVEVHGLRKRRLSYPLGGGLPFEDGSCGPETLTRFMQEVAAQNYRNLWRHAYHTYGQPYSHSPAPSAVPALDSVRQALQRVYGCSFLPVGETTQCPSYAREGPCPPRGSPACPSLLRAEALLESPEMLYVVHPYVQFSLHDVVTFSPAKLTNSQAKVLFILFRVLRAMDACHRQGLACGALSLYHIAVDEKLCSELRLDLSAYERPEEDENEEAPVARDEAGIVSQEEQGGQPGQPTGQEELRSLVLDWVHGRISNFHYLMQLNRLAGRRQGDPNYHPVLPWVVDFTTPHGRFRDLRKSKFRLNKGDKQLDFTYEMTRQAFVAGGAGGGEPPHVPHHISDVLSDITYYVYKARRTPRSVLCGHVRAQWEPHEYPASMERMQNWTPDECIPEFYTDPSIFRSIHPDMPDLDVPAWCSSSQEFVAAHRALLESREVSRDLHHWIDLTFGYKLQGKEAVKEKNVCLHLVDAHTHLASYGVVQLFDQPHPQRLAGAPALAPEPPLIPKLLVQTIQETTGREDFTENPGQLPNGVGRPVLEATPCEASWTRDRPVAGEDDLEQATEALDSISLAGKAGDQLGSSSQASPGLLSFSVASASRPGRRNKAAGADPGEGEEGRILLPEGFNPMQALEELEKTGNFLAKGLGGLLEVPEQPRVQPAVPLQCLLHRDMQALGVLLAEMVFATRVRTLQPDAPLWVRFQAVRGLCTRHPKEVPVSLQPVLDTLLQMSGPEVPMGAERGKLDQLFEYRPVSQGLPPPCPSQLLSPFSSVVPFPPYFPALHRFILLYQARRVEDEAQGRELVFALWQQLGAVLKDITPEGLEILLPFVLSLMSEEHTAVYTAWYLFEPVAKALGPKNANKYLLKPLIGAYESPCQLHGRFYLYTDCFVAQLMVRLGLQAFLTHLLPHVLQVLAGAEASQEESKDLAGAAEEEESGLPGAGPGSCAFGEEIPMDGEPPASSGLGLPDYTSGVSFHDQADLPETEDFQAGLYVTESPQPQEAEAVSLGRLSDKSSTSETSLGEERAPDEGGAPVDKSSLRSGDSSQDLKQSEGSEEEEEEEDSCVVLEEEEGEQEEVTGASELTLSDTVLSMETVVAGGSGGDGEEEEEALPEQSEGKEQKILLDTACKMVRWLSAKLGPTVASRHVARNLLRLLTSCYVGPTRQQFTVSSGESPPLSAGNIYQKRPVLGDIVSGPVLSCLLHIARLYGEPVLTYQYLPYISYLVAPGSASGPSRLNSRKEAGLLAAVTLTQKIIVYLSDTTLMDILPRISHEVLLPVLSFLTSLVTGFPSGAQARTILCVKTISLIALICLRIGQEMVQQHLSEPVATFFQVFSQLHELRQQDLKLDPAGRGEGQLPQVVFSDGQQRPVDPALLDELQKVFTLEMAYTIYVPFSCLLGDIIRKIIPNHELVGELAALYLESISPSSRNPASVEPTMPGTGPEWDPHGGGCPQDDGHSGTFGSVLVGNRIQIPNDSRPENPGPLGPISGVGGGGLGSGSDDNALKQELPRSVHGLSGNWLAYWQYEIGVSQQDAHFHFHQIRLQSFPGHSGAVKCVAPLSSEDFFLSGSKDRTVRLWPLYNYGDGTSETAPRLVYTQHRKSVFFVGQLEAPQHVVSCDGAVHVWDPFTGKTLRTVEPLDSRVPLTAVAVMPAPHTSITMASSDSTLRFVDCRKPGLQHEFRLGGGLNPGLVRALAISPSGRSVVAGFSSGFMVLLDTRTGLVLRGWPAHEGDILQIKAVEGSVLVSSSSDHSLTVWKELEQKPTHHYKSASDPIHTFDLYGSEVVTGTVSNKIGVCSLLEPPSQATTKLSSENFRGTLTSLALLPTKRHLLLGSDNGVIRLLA
Sequence of UniProt P50613 (P50613 whole entry): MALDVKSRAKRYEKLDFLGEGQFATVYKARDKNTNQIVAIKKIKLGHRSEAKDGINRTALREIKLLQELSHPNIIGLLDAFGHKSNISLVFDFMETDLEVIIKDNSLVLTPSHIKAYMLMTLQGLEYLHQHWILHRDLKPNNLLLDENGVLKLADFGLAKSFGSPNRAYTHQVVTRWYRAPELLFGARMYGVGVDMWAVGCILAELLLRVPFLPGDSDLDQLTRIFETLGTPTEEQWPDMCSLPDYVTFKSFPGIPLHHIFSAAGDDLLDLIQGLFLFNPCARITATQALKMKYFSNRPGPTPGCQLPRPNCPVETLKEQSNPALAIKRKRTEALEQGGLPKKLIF
Sequence of UniProt Q9BR76 (Q9BR76 whole entry): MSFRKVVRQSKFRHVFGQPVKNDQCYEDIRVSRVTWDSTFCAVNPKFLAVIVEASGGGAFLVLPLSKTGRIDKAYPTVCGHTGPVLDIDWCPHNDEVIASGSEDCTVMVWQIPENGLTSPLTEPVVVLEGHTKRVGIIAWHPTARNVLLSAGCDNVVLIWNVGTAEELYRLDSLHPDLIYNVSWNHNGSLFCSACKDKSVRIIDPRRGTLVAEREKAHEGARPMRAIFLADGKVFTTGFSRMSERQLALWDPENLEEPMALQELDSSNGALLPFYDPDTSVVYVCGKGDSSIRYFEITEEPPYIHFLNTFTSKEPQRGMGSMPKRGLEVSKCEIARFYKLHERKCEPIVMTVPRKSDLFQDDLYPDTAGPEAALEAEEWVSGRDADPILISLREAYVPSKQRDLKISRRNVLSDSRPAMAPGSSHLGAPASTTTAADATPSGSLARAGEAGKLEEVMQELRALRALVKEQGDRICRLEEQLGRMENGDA
Sequence of UniProt O75533 (O75533 whole entry): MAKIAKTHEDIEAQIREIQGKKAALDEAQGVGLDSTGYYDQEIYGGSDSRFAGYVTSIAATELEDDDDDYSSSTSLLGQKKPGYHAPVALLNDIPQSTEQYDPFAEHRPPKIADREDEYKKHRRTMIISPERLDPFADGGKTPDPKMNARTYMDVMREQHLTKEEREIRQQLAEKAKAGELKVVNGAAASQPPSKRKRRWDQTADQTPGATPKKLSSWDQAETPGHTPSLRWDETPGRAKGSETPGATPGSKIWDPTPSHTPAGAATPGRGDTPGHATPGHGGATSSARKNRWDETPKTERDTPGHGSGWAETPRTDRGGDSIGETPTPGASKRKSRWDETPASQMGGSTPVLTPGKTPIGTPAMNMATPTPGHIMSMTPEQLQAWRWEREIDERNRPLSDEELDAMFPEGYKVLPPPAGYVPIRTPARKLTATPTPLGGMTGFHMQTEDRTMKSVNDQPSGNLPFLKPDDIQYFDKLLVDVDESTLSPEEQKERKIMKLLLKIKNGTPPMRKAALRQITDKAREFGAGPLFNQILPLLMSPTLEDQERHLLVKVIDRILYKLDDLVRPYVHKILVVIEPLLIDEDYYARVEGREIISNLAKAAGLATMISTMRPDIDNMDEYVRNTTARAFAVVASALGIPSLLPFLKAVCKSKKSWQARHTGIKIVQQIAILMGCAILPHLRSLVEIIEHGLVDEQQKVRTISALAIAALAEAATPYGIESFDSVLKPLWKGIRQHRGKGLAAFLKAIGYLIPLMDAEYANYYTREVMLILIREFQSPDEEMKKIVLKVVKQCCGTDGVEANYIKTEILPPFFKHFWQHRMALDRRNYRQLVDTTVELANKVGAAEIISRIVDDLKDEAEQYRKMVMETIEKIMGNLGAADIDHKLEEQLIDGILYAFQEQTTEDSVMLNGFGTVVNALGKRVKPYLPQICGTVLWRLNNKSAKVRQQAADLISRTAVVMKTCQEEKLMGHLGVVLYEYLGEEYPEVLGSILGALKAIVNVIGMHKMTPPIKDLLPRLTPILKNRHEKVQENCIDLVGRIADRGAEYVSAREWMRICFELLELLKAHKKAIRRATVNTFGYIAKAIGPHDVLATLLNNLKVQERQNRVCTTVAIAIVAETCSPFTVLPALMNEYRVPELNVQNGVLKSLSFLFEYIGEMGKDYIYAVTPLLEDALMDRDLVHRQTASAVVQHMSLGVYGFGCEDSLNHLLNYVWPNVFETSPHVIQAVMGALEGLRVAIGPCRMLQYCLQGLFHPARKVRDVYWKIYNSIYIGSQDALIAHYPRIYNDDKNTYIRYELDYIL
Sequence of UniProt Q9BTZ2 (Q9BTZ2 whole entry): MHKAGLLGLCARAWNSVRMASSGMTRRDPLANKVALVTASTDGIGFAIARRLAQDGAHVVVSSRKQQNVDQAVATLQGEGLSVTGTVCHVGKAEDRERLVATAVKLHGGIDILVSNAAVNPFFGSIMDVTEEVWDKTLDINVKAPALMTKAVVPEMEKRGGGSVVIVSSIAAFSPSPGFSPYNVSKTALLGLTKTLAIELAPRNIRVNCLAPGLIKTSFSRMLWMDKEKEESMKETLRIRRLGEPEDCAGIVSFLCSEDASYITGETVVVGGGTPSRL
Sequence of UniProt O43181 (O43181 whole entry): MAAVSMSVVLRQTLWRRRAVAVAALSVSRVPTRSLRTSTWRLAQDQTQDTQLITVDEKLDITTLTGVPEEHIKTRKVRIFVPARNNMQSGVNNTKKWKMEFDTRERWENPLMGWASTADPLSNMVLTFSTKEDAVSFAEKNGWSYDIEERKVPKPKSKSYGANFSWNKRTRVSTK
Sequence of UniProt Q96NT5 (Q96NT5 whole entry): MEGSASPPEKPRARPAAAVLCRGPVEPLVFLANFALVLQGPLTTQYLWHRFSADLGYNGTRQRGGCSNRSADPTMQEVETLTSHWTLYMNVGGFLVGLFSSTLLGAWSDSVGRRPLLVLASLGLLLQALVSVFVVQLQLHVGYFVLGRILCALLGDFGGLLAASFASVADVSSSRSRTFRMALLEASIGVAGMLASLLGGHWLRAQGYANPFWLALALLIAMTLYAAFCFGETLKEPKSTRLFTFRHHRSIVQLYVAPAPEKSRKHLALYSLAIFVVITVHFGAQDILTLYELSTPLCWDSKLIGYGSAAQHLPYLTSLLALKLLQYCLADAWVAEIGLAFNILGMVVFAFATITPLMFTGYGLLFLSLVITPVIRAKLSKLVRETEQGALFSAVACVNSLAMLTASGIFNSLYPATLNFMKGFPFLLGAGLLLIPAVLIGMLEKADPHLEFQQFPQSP

Each target was assayed with NC(=O)CCCCC1CCSS1 [lipoamide] (assay: thermal stability z-score vs DMSO; higher = more thermally stabilized by treatment). Settings: HeLa; lipoamide concentration 100 µM; arsenate co-treatment: 1 mM arsenate 1 h.
Protocol: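 Cellular thermal proteome profiling in HeLa cells. Cells were treated with 100 µM lipoamide for 1 h, with or without 1 mM arsenate for a further 1 h, then heated to ten temperatures (37-66.3 °C), and soluble protein was quantified by TMT mass spectrometry relative to 0.1% DMSO controls. The thermal stability score (sum of log2 fold changes minus the abundance score) was transformed to a z-score; mean of n = 3 experiments.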
Work on CTH (UniProt P32929) yielded a thermal stability z-score of 0.473. TK2 (UniProt O00142) was tested, and the thermal stability z-score was 0.341. In the case of PURB (UniProt Q96QR8), the thermal stability z-score was 0.083. Work on TMEM192 (UniProt Q8IY95) yielded a thermal stability z-score of -0.861. Work on DMD (UniProt P11532) yielded a thermal stability z-score of 0.0264. Work on HAGH (UniProt Q16775) yielded a thermal stability z-score of 0.41. Work on MAPRE1 (UniProt Q15691) yielded a thermal stability z-score of 0.796. TRAPPC1 (UniProt Q9Y5R8) gave a thermal stability z-score of 0.425. With RAB23 (UniProt Q9ULC3) the thermal stability z-score was 0.712. Target PATL1 (UniProt Q86TB9) has a thermal stability z-score of -0.613. SLC46A1 (UniProt Q96NT5) gave a thermal stability z-score of -0.375. Work on WDR81 (UniProt Q562E7) yielded a thermal stability z-score of -0.0547. EML4 (UniProt Q9HC35) gave a thermal stability z-score of -0.51. Work on PFDN1 (UniProt O60925) yielded a thermal stability z-score of 1.42. Target MFSD4B (UniProt Q5TF39) has a thermal stability z-score of -0.227. Work on CORO1B (UniProt Q9BR76) yielded a thermal stability z-score of -0.396. In the case of CLINT1 (UniProt Q14677), the thermal stability z-score was 0.199. CDK7 (UniProt P50613) gave a thermal stability z-score of -0.000906. Target CLIC1 (UniProt O00299) has a thermal stability z-score of 0.85. Work on FUT11 (UniProt Q495W5) yielded a thermal stability z-score of -1.71. AGR2 (UniProt O95994) gave a thermal stability z-score of -2.84. In the case of NDUFS4 (UniProt O43181), the thermal stability z-score was 0.511. Work on GRAMD1B (UniProt Q3KR37) yielded a thermal stability z-score of -0.102. STT3B (UniProt Q8TCJ2) gave a thermal stability z-score of -3.41. Target DHRS4 (UniProt Q9BTZ2) has a thermal stability z-score of -0.194. Work on TNS1 (UniProt Q9HBL0) yielded a thermal stability z-score of -0.0135. Work on S100A11 (UniProt P31949) yielded a thermal stability z-score of 1.19. SF3B1 (UniProt O75533) showed a thermal stability z-score of 2.46. DRAM2 (UniProt Q6UX65) showed a thermal stability z-score of 0.00378. In the case of LRRC41 (UniProt Q15345), the thermal stability z-score was -0.134. With SNX5 (UniProt Q9Y5X3) the thermal stability z-score was -0.497. POLR3F (UniProt Q9H1D9) gave a thermal stability z-score of -0.186. KIF1BP (UniProt Q96EK5) showed a thermal stability z-score of 0.371. Target ARID2 (UniProt Q68CP9) has a thermal stability z-score of 0.136. With FKBP14 (UniProt Q9NWM8) the thermal stability z-score was -3.79. GLS (UniProt O94925) was tested, and the thermal stability z-score was -0.371. LIMS1 (UniProt P48059) was tested, and the thermal stability z-score was -0.604. With KIFC3 (UniProt Q9BVG8) the thermal stability z-score was -0.119. GALK2 (UniProt Q01415) gave a thermal stability z-score of 0.547. NRF1 (UniProt Q16656) was tested, and the thermal stability z-score was -0.282. RAB18 (UniProt Q9NP72) was tested, and the thermal stability z-score was 0.167. In the case of FAT1 (UniProt Q14517), the thermal stability z-score was -1.6. For UniProt G3V599, the thermal stability z-score was -0.297. GATSL2 (UniProt A6NHX0) gave a thermal stability z-score of 0.724. Work on PRRC2A (UniProt P48634) yielded a thermal stability z-score of 0.431. MAN1A2 (UniProt O60476) gave a thermal stability z-score of -0.432. Work on RPS12 (UniProt P25398) yielded a thermal stability z-score of 0.613. GPBP1L1 (UniProt Q9HC44) was tested, and the thermal stability z-score was -0.469. Target FAM206A (UniProt Q9NX38) has a thermal stability z-score of -0.0394. Target ATF7IP (UniProt Q6VMQ6) has a thermal stability z-score of 0.974. In the case of PARL (UniProt Q9H300), the thermal stability z-score was -0.134. With GPS1 (UniProt Q13098) the thermal stability z-score was 0.881. ARHGAP21 (UniProt Q5T5U3) was tested, and the thermal stability z-score was -0.57. ALAS1 (UniProt P13196) was tested, and the thermal stability z-score was 0.0114. For SDCBP (UniProt O00560), the thermal stability z-score was 0.541. With GNB1 (UniProt P62873) the thermal stability z-score was 0.979. TREX1 (UniProt Q9NSU2) showed a thermal stability z-score of -0.5. SLC3A2 (UniProt P08195) showed a thermal stability z-score of 0.528. LRWD1 (UniProt Q9UFC0) showed a thermal stability z-score of -0.0805. In the case of KLHL13 (UniProt Q9P2N7), the thermal stability z-score was -0.764. Work on DDA1 (UniProt Q9BW61) yielded a thermal stability z-score of 0.456. Work on GTF3C6 (UniProt Q969F1) yielded a thermal stability z-score of 0.05. Work on ANKFY1 (UniProt Q9P2R3) yielded a thermal stability z-score of 0.069. For TXNDC5 (UniProt Q8NBS9), the thermal stability z-score was -2.16. PYGB (UniProt P11216) gave a thermal stability z-score of 0.243. For FBXO38 (UniProt Q6PIJ6), the thermal stability z-score was 0.0679. Target HLTF (UniProt Q14527) has a thermal stability z-score of -0.245. With ADO (UniProt Q96SZ5) the thermal stability z-score was 1.62. Target SLC12A2 (UniProt P55011) has a thermal stability z-score of -0.435. TRMT61A (UniProt Q96FX7) showed a thermal stability z-score of 1.14. With GSN (UniProt P06396) the thermal stability z-score was 0.0431.

Same assay, conditions: HeLa; lipoamide concentration 100 µM; arsenate co-treatment: none
In the case of CTH (UniProt P32929), the thermal stability z-score was 0.559. Target TK2 (UniProt O00142) has a thermal stability z-score of 0.589. In the case of PURB (UniProt Q96QR8), the thermal stability z-score was 0.15. Target TMEM192 (UniProt Q8IY95) has a thermal stability z-score of 0.064. Work on DMD (UniProt P11532) yielded a thermal stability z-score of -0.124. With HAGH (UniProt Q16775) the thermal stability z-score was -0.0853. For MAPRE1 (UniProt Q15691), the thermal stability z-score was 0.705. Work on TRAPPC1 (UniProt Q9Y5R8) yielded a thermal stability z-score of 0.512. Target RAB23 (UniProt Q9ULC3) has a thermal stability z-score of 0.437. In the case of PATL1 (UniProt Q86TB9), the thermal stability z-score was -0.623. SLC46A1 (UniProt Q96NT5) was tested, and the thermal stability z-score was 0.408. Work on WDR81 (UniProt Q562E7) yielded a thermal stability z-score of -0.0815. EML4 (UniProt Q9HC35) was tested, and the thermal stability z-score was -0.693. For PFDN1 (UniProt O60925), the thermal stability z-score was 1.53. In the case of MFSD4B (UniProt Q5TF39), the thermal stability z-score was 0.265. Work on CORO1B (UniProt Q9BR76) yielded a thermal stability z-score of -0.129. With CLINT1 (UniProt Q14677) the thermal stability z-score was 0.142. Work on CDK7 (UniProt P50613) yielded a thermal stability z-score of -0.0377. For CLIC1 (UniProt O00299), the thermal stability z-score was 0.348. For FUT11 (UniProt Q495W5), the thermal stability z-score was -0.756. AGR2 (UniProt O95994) was tested, and the thermal stability z-score was -2.57. In the case of NDUFS4 (UniProt O43181), the thermal stability z-score was 0.477. GRAMD1B (UniProt Q3KR37) was tested, and the thermal stability z-score was 0.0763. For STT3B (UniProt Q8TCJ2), the thermal stability z-score was -2.66. Target DHRS4 (UniProt Q9BTZ2) has a thermal stability z-score of -0.173. In the case of TNS1 (UniProt Q9HBL0), the thermal stability z-score was -0.0322. S100A11 (UniProt P31949) was tested, and the thermal stability z-score was 1.12. SF3B1 (UniProt O75533) was tested, and the thermal stability z-score was 0.661. DRAM2 (UniProt Q6UX65) gave a thermal stability z-score of -0.247. For LRRC41 (UniProt Q15345), the thermal stability z-score was -0.26. With SNX5 (UniProt Q9Y5X3) the thermal stability z-score was -0.998. Target POLR3F (UniProt Q9H1D9) has a thermal stability z-score of -0.242. KIF1BP (UniProt Q96EK5) was tested, and the thermal stability z-score was -0.0427. In the case of ARID2 (UniProt Q68CP9), the thermal stability z-score was 0.254. In the case of FKBP14 (UniProt Q9NWM8), the thermal stability z-score was -2.85.
